What was measured:
[1] = system: HSV-1; assay: HSV-1 replication inhibition in primary human foreskin fibroblasts; assay type: cell-based, herpes simplex virus 1; set-up: key to Replication inhibition HSV-1 50 μM (not quantified): NQ: Not quantified due to visible toxicity; conditions: HFF cells; for Replication inhibition HSV-1 5 μM / Replication inhibition HSV-1 50 μM: relative to DMSO-treated control
Description: (§1) Anti-HSV-1 and -HSV-2 Replication Assay. Compounds to be screened were diluted in PBS supplemented to contain 2% newborn calf serum and 1% glutamine, and added in 100 μL, volume to confluent cell monolayers in 24-well cluster plates. Immediately thereafter HSV-1 and HSV-2, diluted in the supplemented PBS medium, were added to the wells in 50 μl volume such that the final concentration of compound was 50 μM and 5 μM and the multiplicity of infection was 0.1. The plates were incubated at 37° C. for 1 hour and then virus-containing inoculum was removed and the wells were washed once in PBS. Compounds, diluted to 50 μM and 5 μM in DMEM supplemented to contain 2% newborn calf serum and 1% each penicillin/streptomycin, were added at 0.5 mL/well. Plates were incubated at 37° C. an additional 23 hr, and then the plates were visually inspected through a phase contrast microscope for cytopathic effect, and for toxic effect. […] The entire contents of each well were collected by scraping. Samples were frozen at −80° C., and then subsequently thawed, sonicated, and infectious virus titer was determined by standard plaque assay on Vero cell monolayers. Because the compounds were dissolved at 10 mM in 100% DMSO, equivalent dilutions of DMSO were added to additional wells as a control for effects of the diluent. Each experiment was repeated once. EC50 values were determined as above except that serial dilutions of the compound to be tested were prepared starting at 50 μM. The inhibitory values were calculated by non-linear curve-fitting in GraphPad Prism.
(§2) Inhibition of viral replication was next assessed in human foreskin fibroblasts (HFF) to determine whether NTS inhibitors could block HSV-1 and HSV-2 replication in a physiologically relevant, primary human cell type. […] Viral yields 24 hours post-infection were measured by plaque assay.

[2] = system: HSV-1; assay: Anti-HSV-1 replication assay in Vero cells, titer by plaque assay; assay type: cell-based, herpes simplex virus 1; conditions: for Anti-HSV-1 Log10 suppression 5 μM / Anti-HSV-1 Log10 suppression 50 μM: moi 0.1, 24 h, relative to DMSO; for Inhibition of HSV-1 replication (in words): primary screening; for Anti-HSV-1 Log10 suppression 5 μM (screening symbol) / Anti-HSV-1 Log10 suppression 50 μM (screening symbol): visual inspection
Description: as §1
(§3) Monolayers were microscopically inspected 24 hours post-infection and wells in which more cells were visually healthier than the DMSO-treated controls were collected. Viral titers in the culture lysates were then determined by standard plaque assay on Vero cells. Inhibition of viral replication was categorized as <1 log10 relative to the DMSO-treated control, 1 to 3 log10 suppression, or ≥3 log10 suppression. […] Additionally, four polyoxygenated heterocycle compounds were tested (#128, 138, 139, 140).

[3] = system: primary human foreskin fibroblasts; assay: in vitro
Description: Toxicity Assays. Qualitative assessments of cytotoxicity were done visually by inspecting the cells in the primary screening assays. For the quantitative assays, cells were plated in 96-well plates at 1.0×10^4 per well. The next day the compounds were added at 0.78 to 100 μM in a final concentration of 1% (v/v) DMSO, and the cells were incubated for 24 hours under conditions identical to those employed for the viral replication inhibition assays. Mitochondrial toxicity was measured by incubating the cells with 0.25 mg/mL thiazolyl blue tetrazolium bromide (MTT, SigmaAldrich Chemical Co.), the cultures were incubated for 60 min, metabolites were solubilized in acidic isopropanol, and absorbance was read at 570 nm. Cellular lysis was measured by detecting release of intracellular proteases with the CytoTox-Glo assay (Promega) according to the manufacturer's instructions. Percent viability was determined for each compound concentration from the maximal absorbance or luminosity data, and then CC50 values were calculated by non-linear curve fitting using GraphPad Prism.
as §2

[4] = biological target: T1, HBV RNaseH (Hepatitis B virus genotype A2 subtype adw2, UniProt P03159); assay: Biochemical inhibition of HBV RNaseH (oligonucleotide-directed RNA cleavage assay); conditions: compounds at 60, 20 or 10 μM
T1 construct: One of the inventors recently produced active recombinant HBV RNase H; hexahistidine; made in house; host or cells: E. coli
Description: (§4) Biochemical inhibition of HBV RNaseH and human RNaseH1 activity. […] RNaseH activity was measured using an oligonucleotide-directed RNA cleavage assay in which a DNA oligonucleotide is annealed to an internally ^32P-labeled RNA, the RNA:DNA heteroduplex is incubated with the enzyme to permit cleavage, and then the RNA cleavage products are resolved by electrophoresis and detected by autoradiography. The compounds were included in the reaction mixes at 60, 20, or 10 μM and the amount of the RNA cleavage products in the compound-containing reactions was compared to reactions in which an equivalent concentration of DMSO was added as a vehicle control. The data were quantified using ImageJ.

[5] = system: HSV-2; assay: HSV-2 replication inhibition in primary human foreskin fibroblasts; assay type: cell-based, herpes simplex virus 2; set-up: key to Replication inhibition HSV-2 50 μM (not quantified): NQ: Not quantified due to visible toxicity; conditions: HFF cells; for Replication inhibition HSV-2 5 μM / Replication inhibition HSV-2 50 μM: relative to DMSO-treated control
Description: as §1, §2

[6] = system: HSV-2; assay: Anti-HSV-2 replication assay in Vero cells, titer by plaque assay; assay type: cell-based, herpes simplex virus 2; conditions: for Anti-HSV-2 Log10 suppression 5 μM / Anti-HSV-2 Log10 suppression 50 μM: moi 0.1, 24 h, relative to DMSO; for Inhibition of HSV-2 replication (in words): primary screening; for Anti-HSV-2 Log10 suppression 5 μM (screening symbol) / Anti-HSV-2 Log10 suppression 50 μM (screening symbol): visual inspection
Description: as §1, §3

[7] = biological target: T2, human RNaseH1 (Homo sapiens, UniProt O60930); assay: Biochemical inhibition of human RNaseH1 (oligonucleotide-directed RNA cleavage assay); conditions: compounds at 60, 20 or 10 μM
T2 construct: hexahistidine; made in house; host or cells: E. coli
T2 sequence (O60930 1-286): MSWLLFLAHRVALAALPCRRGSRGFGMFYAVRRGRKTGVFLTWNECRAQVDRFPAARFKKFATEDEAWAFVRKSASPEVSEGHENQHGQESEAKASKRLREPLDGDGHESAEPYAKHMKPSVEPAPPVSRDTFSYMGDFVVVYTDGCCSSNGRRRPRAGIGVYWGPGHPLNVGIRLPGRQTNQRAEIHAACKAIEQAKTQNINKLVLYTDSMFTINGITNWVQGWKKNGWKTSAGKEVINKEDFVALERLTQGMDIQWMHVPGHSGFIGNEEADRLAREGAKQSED
Description: as §4

[8] = system: Vero cells; assay: Qualitative (visual) cytotoxicity assessment in primary screening; assay type: cell-based; set-up: key to Vero cell toxicity Qualitative: T: visual evidence of toxicity at 50 μM; conditions: for Vero cell toxicity Qualitative: visual, 50 μM
Description: Compound Cytotoxicity. Compound cytotoxicity was measured both subjectively and quantitatively. Subjective assessments were done by visually inspecting the infected cells at the end of the 24 hours infection window through a phase-contrast microscope.

T1 sequence (P03159 693-845): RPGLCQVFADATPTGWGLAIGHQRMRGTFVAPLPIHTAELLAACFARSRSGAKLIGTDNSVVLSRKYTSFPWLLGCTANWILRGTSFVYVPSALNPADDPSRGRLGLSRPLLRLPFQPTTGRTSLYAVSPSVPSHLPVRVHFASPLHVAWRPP

| Anti-HBV RNaseH [4] | Anti-Human RNaseH1 [7] | SMILES | Anti-HSV-1 Log10 suppression 5 μM [2] [log10] | Anti-HSV-1 Log10 suppression 50 μM [2] [log10] | Anti-HSV-2 Log10 suppression 5 μM [6] [log10] | Anti-HSV-2 Log10 suppression 50 μM [6] [log10] | other results |
| --- | --- | --- | --- | --- | --- | --- | --- |
| − (no inhibition at 60 μM) | − (no inhibition at 60 μM) | CC(C)c1ccc(O)c(=O)cc1 [Compound 48, Gamma-thujaplicin] | 0.31 | 4.71 | 0.20 | 4.57 | Replication inhibition HSV-1 5 μM [1]: 0.05 log10; Replication inhibition HSV-1 50 μM ([1]; 50 μM): 5.99 log10; Inhibition of HSV-1 replication (in words) [2]: negligible inhibitors; CC50 [3]: > 100 µM; Replication inhibition HSV-2 5 μM [5]: 0.20 log10; Replication inhibition HSV-2 50 μM ([5]; 50 μM): 5.76 log10; Inhibition of HSV-2 replication (in words) [6]: negligible inhibitors |
| − (no inhibition at 60 μM) | +++ (inhibition at 10 μM) | O=c1c(O)c(-c2ccc(O)c(O)c2)oc2cc(O)c(O)c(O)c12 [Compound 7] | 0.44 | 0.48 | 0.03 | 1.26 |  |
| − (no inhibition at 60 μM) |  | CCOC(=O)c1sc(NC(=O)CSc2nccc(C)n2)c(C#N)c1C [Compound 27] |  |  |  |  | Anti-HSV-1 Log10 suppression 5 μM (screening symbol) [2]: −; Anti-HSV-1 Log10 suppression 50 μM (screening symbol) [2]: −; Vero cell toxicity Qualitative [8]: T; Anti-HSV-2 Log10 suppression 5 μM (screening symbol) [6]: −; Anti-HSV-2 Log10 suppression 50 μM (screening symbol) [6]: − |
| ++ (inhibition at 20 μM) | ++ (inhibition at 20 μM) | O=c1c(O)c(-c2cc(O)c(O)c(O)c2)oc2cc(O)cc(O)c12 [Compound 9] | 0.30 | 0.38 | −0.04 | 0.67 |  |
| ++ (inhibition at 20 μM) | − (no inhibition at 60 μM) | Cc1cc(=O)oc2cc(O)c(O)cc12 [Compound 34] | 0.08 | 2.64 | −0.07 | 3.29 |  |
| − (no inhibition at 60 μM) | − (no inhibition at 60 μM) | O=c1ccc2ccccc2n1O [Compound 43] | 0.31 | 1.31 | 0.31 | 1.13 |  |
| − (no inhibition at 60 μM) | − (no inhibition at 60 μM) | Cc1cc(C)n(O)c(=O)c1C#N [Compound 44] |  |  |  |  | Anti-HSV-1 Log10 suppression 5 μM (screening symbol) [2]: −; Anti-HSV-1 Log10 suppression 50 μM (screening symbol) [2]: −; Anti-HSV-2 Log10 suppression 5 μM (screening symbol) [6]: −; Anti-HSV-2 Log10 suppression 50 μM (screening symbol) [6]: − |

The next lines start with the compound.

| SMILES | Anti-HBV RNaseH [4] | Anti-Human RNaseH1 [7] | Anti-HSV-1 Log10 suppression 5 μM [2] [log10] | Anti-HSV-1 Log10 suppression 50 μM [2] [log10] | Anti-HSV-2 Log10 suppression 5 μM [6] [log10] | Anti-HSV-2 Log10 suppression 50 μM [6] [log10] | other results |
| --- | --- | --- | --- | --- | --- | --- | --- |
| O=C(Nc1ccc(O)c(=O)cc1)c1ccccc1 [Compound 52] | − (no inhibition at 60 μM) | − (no inhibition at 60 μM) | 0.07 | 2.02 | 0.10 | 1.34 | Replication inhibition HSV-1 5 μM [1]: 0.10 log10; Replication inhibition HSV-1 50 μM (not quantified) ([1]; 50 μM): NQ; Inhibition of HSV-1 replication (in words) [2]: negligible inhibitors; CC50 [3]: > 100 µM; Replication inhibition HSV-2 5 μM [5]: −0.01 log10; Replication inhibition HSV-2 50 μM (not quantified) ([5]; 50 μM): NQ; Inhibition of HSV-2 replication (in words) [6]: negligible inhibitors |
| CN(C)c1ccc(-c2c3cc(O)c(=O)cc-3oc3cc(O)c(O)cc23)cc1 [Compound 35] | +++ (inhibition at 10 μM) | +++ (inhibition at 10 μM) |  |  |  |  | Anti-HSV-1 Log10 suppression 5 μM (screening symbol) [2]: −; Anti-HSV-1 Log10 suppression 50 μM (screening symbol) [2]: −; Anti-HSV-2 Log10 suppression 5 μM (screening symbol) [6]: −; Anti-HSV-2 Log10 suppression 50 μM (screening symbol) [6]: − |
| O=c1cc(NC2CCc3ccccc32)c2cccnc2n1O (stereo not drawn) [Compound 155] |  |  | 3.85 |  | 3.88 |  | Anti-HSV-1 Log10 suppression 5 μM ([2]; listed as #155): > 3.84 log10; Cytotoxicity at 50 μM (in words) [8]: significant cytotoxicity; Vero cell toxicity Qualitative [8]: T; Anti-HSV-2 Log10 suppression 5 μM ([6]; listed as #155): > 3.84 log10 |
| Cc1nnc(C(=O)NC(C)(C)c2nc(C(=O)NCc3ccc(F)cc3)c(O)c(=O)n2C)o1 [Compound 11, Raltegravir, reference compound] | − (no inhibition at 60 μM) | − (no inhibition at 60 μM) | 0.2 | 0.37 | 0.25 | 0.35 |  |
| O=c1cc(NCc2ccccc2)c2cccnc2n1O [Compound 151] |  |  | 2.16 |  | 2.26 |  | Anti-HSV-1 Log10 suppression 5 μM ([2]; listed as #151): > 2.15 log10; Cytotoxicity at 50 μM (in words) [8]: significant cytotoxicity; Vero cell toxicity Qualitative [8]: T; Anti-HSV-2 Log10 suppression 5 μM ([6]; listed as #151): > 2.15 log10 |
| Cc1c2cc(O)c(=O)cc-2oc2cc(O)c(O)cc12 [Compound 8] | ++ (inhibition at 20 μM) | +++ (inhibition at 10 μM) | −0.18 | 0.86 | 0.18 | 2.49 |  |
| CC(C)c1cccc(O)c(=O)c1 [Compound 47, Beta-thujaplicin] | − (no inhibition at 60 μM) | − (no inhibition at 60 μM) | 0.31 | 1.86 | 0.22 | 1.38 | Replication inhibition HSV-1 5 μM [1]: 0.02 log10; Replication inhibition HSV-1 50 μM ([1]; 50 μM): 5.06 log10; Inhibition of HSV-1 replication (in words) [2]: negligible inhibitors; CC50 ([3]; read-out: Toxicity, CC50 by MTT assay, HFF cells, 24 h): > 100 µM; Replication inhibition HSV-2 5 μM [5]: 0.08 log10; Replication inhibition HSV-2 50 μM ([5]; 50 μM): 5.16 log10; Inhibition of HSV-2 replication (in words) [6]: negligible inhibitors |
